In patent US7674954B2, “DNA constructs that contain Helianthus annuus Hahb-10 gene coding sequence, method for generating plants with a shortened life cycle and a high tolerance to herbicidal compounds and transgenic plants with that sequence” (Universidad Nacional del Litoral, priority 2006, dated 2010):

Key:
[1] = tested on: Hahb-10 transcript levels; test: Northern blot of Hahb-10 transcript levels in treated sunflower seedlings; assay type: in vivo, Helianthus annuus
Procedure: 2A: Total RNA samples (20 μg each) extracted from 4-day-old seedlings subjected to different treatments as described later were hybridized with a ^32P-labeled Hahb-10 cDNA specific probe (A, upper panel). The same filter was hybridized with an rRNA probe as a control for RNA loading and transfer. Spots obtained with the specific probe were quantified in reference to their rRNA using Image Pro Plus software. […] Quantitation of the signals has been done taking as standard value the signal obtained in these seedlings because the signal obtained in control seedlings was almost not detectable by the software used for this purpose. 2B: Total RNA samples (20 μg each) extracted from 7-day-old seedlings grown in normal illumination conditions (lane 1), in the dark (lane 2), or under continuous illumination at 40 cm from the light source applied to 4-day-old seedlings germinated in the dark during 3 additional days (lane 3) were analyzed by electrophoresis, transferred onto nylon membranes and hybridized with a ^32P-labelled Hahb-10 cDNA specific probe (upper panel). The same filter was hybridized with an rRNA probe as a control for RNA loading and transfer (lower panel). […]

[2] = tested on: non-transformed (wild-type) Arabidopsis plants; test: Stem elongation after gibberellin spraying, non-transformed plants; assay type: in vivo, Arabidopsis thaliana
Procedure: (§1) Stem height was measured with a ruler in non transformed (1) or 35S-Hahb10 transgenic plants (2: line A; 3: line B and 4: line C). Grey bars represent three transgenic lines and white bars represent wild-type plants. Right series in each panel represent GA3 treated plants while left series represent their non-treated counterparts. […] Arabidopsis transgenic or wild-type plants were grown under normal illumination conditions for 15 days. After this, the plants were sprayed with 200 μM GA3. This treatment was repeated at day 25. Stem length was measured in 20- and 30-day-old plants with a ruler. […] In order to investigate the response of Hahb-10 overexpressing lines to this hormone, we treated plants with 200 μM gibberellins as described above.

[3] = tested on: 35S-Hahb10 transgenic Arabidopsis plants; test: Stem elongation after gibberellin spraying, Hahb-10 overexpressing plants; assay type: in vivo, Arabidopsis thaliana
Procedure: as §1

[4] = tested on: wild-type Arabidopsis thaliana; test: Herbicide (methyl viologen) spraying, non-transformed plants; assay type: in vivo; conditions: 10 to 30 μM methyl viologen sprayed on 21-day-old plants, correlating to concentration
Procedure: (§2) Treatments with the herbicide Paraquat were carried out by growing transgenic and wild-type 21-day-old plants under normal conditions and spraying them with methyl viologen at concentrations of 10, 20 or 30 μM.
(§3) In order to study the effect of Hahb-10 overexpression on the tolerance to herbicides, transgenic and wild-type 21-day-old Arabidopsis thaliana were grown under normal conditions and were sprayed with methyl viologen at concentrations of 10, 20 or 30 μM. Once sprayed, they were left at the same illumination and temperature conditions for 24 hours and, at that time, leaf impairment was easily observable. One week after MV treatment, chlorophyll content in the leaves from both genotypes was analyzed. Plants were allowed to recover for three days and the percentage of survivors, either wild-type or transgenic ones expressing the Hahb-10 gene, was recorded.

[5] = tested on: transgenic Arabidopsis thaliana expressing the Hahb-10 gene; test: Herbicide (methyl viologen) spraying, Hahb-10 transgenic plants; assay type: in vivo; conditions: 10 to 30 μM methyl viologen sprayed on 21-day-old plants; three independent transgenic lines; dose-dependent
Procedure: as §2, §3

C=C1C[C@]23C[C@@]1(O)CC[C@H]2[C@@]12C=C[C@H](O)[C@@](C)(C(=O)O1)[C@H]2[C@@H]3C(=O)O [gibberellins, gibberellic acid]
Hahb-10 transcript levels raised with respect to the heat-shock treatment ([1]; 100 μM gibberellic acids, Northern blot normalised to rRNA): 5 fold
increase in stem elongation with respect to non-treated controls ([2]; 200 μM gibberellins sprayed, 5 days after the first treatment (20-day-old plants), non-transformed plants): 3.7 fold
stem elongation induction on average ([2]; 200 μM gibberellins, after the second treatment (30-day-old plants), wild-type plants): 1.5 fold
increase in stem length with respect to non-treated controls ([3]; 200 μM gibberellins sprayed, 5 days after the first treatment (20-day-old plants)): 1.6 fold
stem elongation induction on average ([3]; 200 μM gibberellins, after the second treatment (30-day-old plants)): 1.2 fold

C[n+]1ccc(-c2cc[n+](C)cc2)cc1 [methyl viologen]
effect of herbicide treatment on plants [4]: dramatically affected
effect of herbicide treatment on plants [5]: resistant

OC[C@H]1O[C@@](CO)(O[C@H]2O[C@H](CO)[C@@H](O)[C@H](O)[C@H]2O)[C@@H](O)[C@@H]1O [sucrose]
effect on Hahb-10 mRNA levels ([1]; sucrose 10% w/v, similar to slight enhancement by heat/cold shock, water stress, hypoxia): produced a similar effect
